According to PMC11186346, “Conformational flexibility driving charge-selective substrate translocation across a bacterial transporter” (Chemical Science, 2024):
Where two headings read alike, the source gives them in different places.

Tests used:
[1] = biological target: truncated CymA (ΔN15) (Klebsiella oxytoca, UniProt Q48391); settings: +50 mV
[2] = biological target: T1, native CymA (Klebsiella oxytoca, UniProt Q48391); assay: single-channel electrical recording, planar lipid bilayer; format: biochemical; settings: +50 mV
T1 construct: full-length mature pore, residues 1-324, purified as described in earlier work, reconstituted in DPhPC planar lipid bilayers; monomeric beta-barrel
T1 sequence (Q48391 23-346): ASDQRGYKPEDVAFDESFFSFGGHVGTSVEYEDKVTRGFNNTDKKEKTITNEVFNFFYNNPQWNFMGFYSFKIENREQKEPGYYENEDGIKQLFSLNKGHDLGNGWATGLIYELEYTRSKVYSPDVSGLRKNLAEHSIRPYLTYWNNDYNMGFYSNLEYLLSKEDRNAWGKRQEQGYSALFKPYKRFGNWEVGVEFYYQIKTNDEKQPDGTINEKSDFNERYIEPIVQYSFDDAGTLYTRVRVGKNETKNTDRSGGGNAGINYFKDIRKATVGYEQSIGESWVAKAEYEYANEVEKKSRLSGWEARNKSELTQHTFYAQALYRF

[3] = pH 8.0, 1 M KCl, 10 mM HEPES, trans side, mean dwell time of blockage (koff = 1/τoff)
[4] = pH 6.0, mean dwell time of blockage

| Structure (SMILES) | τoff [1, 3] | τoff [2, 3] | τoff [1, 4] | τoff [2, 4] |
| --- | --- | --- | --- | --- |
| NC[C@H]1O[C@@H]2O[C@H]3[C@H](O)[C@@H](O)[C@@H](O[C@H]4[C@H](O)[C@@H](O)[C@@H](O[C@H]5[C@H](O)[C@@H](O)[C@@H](O[C@H]6[C@H](O)[C@@H](O)[C@@H](O[C@H]7[C@H](O)[C@@H](O)[C@@H](O[C@H]1[C@H](O)[C@H]2O)O[C@@H]7CN)O[C@@H]6CN)O[C@@H]5CN)O[C@@H]4CN)O[C@@H]3CN [am6αCD] | 0.32 ± 0.04 ms | 0.55 ± 0.06 ms |  |  |
| OC[C@H]1O[C@@H]2O[C@H]3[C@H](O)[C@@H](O)[C@@H](O[C@H]4[C@H](O)[C@@H](O)[C@@H](O[C@H]5[C@H](O)[C@@H](O)[C@@H](O[C@H]6[C@H](O)[C@@H](O)[C@@H](O[C@H]7[C@H](O)[C@@H](O)[C@@H](O[C@H]1[C@H](O)[C@H]2O)O[C@@H]7CO)O[C@@H]6CO)O[C@@H]5CO)O[C@@H]4CO)O[C@@H]3CO [αCD] |  |  | 0.4500 ± 0.04 ms | 0.620 ± 0.05 ms |
